Consider 26 molecules from ChEMBL document CHEMBL1133406, “Potent antagonists of gonadotropin releasing hormone receptors derived from quinolone-6-carboxamides” (Bioorg Med Chem Lett, 2000).

Assay [1] has as its target T1, Gonadotropin-releasing hormone receptor (Rattus norvegicus, UniProt P30969).
T1 sequence (P30969 whole entry): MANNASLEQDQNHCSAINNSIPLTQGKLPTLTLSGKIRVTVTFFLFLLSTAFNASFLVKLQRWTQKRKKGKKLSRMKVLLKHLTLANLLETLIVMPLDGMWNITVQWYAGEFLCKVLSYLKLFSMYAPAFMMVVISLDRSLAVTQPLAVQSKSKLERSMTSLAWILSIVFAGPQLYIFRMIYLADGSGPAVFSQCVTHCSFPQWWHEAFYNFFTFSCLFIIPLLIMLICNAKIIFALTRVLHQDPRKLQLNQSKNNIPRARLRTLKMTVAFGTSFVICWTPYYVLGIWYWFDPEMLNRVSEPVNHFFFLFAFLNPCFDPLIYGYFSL
Put plainly: In vitro inhibition of GnRH stimulated release of luteinizing hormone from the rat primary pituitary cells. The class given is functional, cell-based, Pituitary gland cell.

In assay [2] the target is T2, Gonadotropin-releasing hormone receptor (Homo sapiens, UniProt P30968).
T2 sequence (P30968 whole entry): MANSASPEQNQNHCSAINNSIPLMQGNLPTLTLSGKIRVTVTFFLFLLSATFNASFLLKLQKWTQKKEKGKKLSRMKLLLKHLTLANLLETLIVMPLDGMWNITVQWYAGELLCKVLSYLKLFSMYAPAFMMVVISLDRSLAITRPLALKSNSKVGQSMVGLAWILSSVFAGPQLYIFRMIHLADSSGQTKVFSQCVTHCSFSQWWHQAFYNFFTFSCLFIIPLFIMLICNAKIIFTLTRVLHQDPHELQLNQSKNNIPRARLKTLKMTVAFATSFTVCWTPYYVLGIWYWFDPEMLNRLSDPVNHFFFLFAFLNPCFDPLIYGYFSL
Nature of the assay: In vitro inhibitory activity against […] CHO cells stably expressing human gonadotropin-releasing hormone receptor. It is filed as cell-based.

Assay [3] deals with T2, Gonadotropin-releasing hormone receptor. Put plainly: In vitro inhibition of GnRH-stimulated phosphatidyl inositol hydrolysis in CHO cells stably expressing gonadotropin-releasing hormone receptor. It is filed as functional, cell-based.

In assay [1], `CCC(C)N(C(=O)c1cc2c(OCCC3CCCCN3)c(-c3cc(C)cc(C)c3)c(O)nc2cc1Cl)C(C)CC` (stereo unspecified) gave an IC50 greater than 1280 nM.
Turning to `Cc1cc(C)cc(-c2c(O)nc3cc(Cl)c(C(=O)Nc4cc(Cl)ncn4)cc3c2OCCC2CCCCN2)c1` (stereo unspecified), the IC50 came to 1.4 nM in assay [2], 14.5 nM in assay [3] and 79.2 nM in assay [1].
The like results for `Cc1cc(C)cc(-c2c(O)nc3cc(Cl)c(C(=O)Nc4ccncn4)cc3c2OCC[C@@H]2CCCCN2)c1` were, in that order, 0.9 nM, 5 nM and 96.5 nM.
With `Cc1cc(C)cc(-c2c(O)nc3cc(Cl)c(C(=O)Nc4cnsn4)cc3c2OCCC2CCCCN2)c1` (stereo unspecified), the IC50 is 2 nM in assay [2], 6.4 nM in assay [3] and 292 nM in assay [1].
For `Cc1cc(C)cc(-c2c(O)nc3cc(Cl)c(C(=O)Nc4nncs4)cc3c2OCCC2CCCCN2)c1` (stereo unspecified), the concentration for half-maximal inhibition (IC50) in assay [2] was 32 nM; in assay [3], 22 nM.
On to `Cc1cc(C)cc(-c2c(O)nc3cc(Cl)c(C(=O)Nc4ccnc(C)n4)cc3c2OCCC2CCCCN2)c1` (stereo unspecified), for which the 50% inhibitory concentration (IC50) is 1.8 nM in assay [2], 33.3 nM in assay [3] and 87.2 nM in assay [1].
In the case of `COc1nccc(NC(=O)c2cc3c(OCCC4CCCCN4)c(-c4cc(C)cc(C)c4)c(O)nc3cc2Cl)n1` (stereo unspecified), the 50% inhibitory concentration (IC50) in assay [2] was 9 nM; in assay [3], 133 nM.
In the case of `Cc1cc(C)cc(-c2c(O)nc3cc(Cl)c(C(=O)Nc4nc[nH]n4)cc3c2OCCC2CCCCN2)c1` (stereo unspecified), the half-inhibitory concentration (IC50) was 320 nM in assay [2], 775 nM in assay [3] and greater than 1280 nM in assay [1].
The like results for `Cc1cc(C)cc(-c2c(O)nc3cc(Cl)c(C(=O)Nc4ccncc4)cc3c2OCCC2CCCCN2)c1` (stereo unspecified) were, in that order, 3.8 nM, 10.6 nM and 1090 nM.
For `Cc1cc(C)cc(-c2c(O)nc3cc(Cl)c(C(=O)Nc4cc(C)nc(C)n4)cc3c2OCCC2CCCCN2)c1` (stereo unspecified), the values for the IC50 in assay [2] and in assay [3] were 40 nM and 486 nM, respectively.
With `Cc1cc(C)cc(-c2c(O)nc3cc(Cl)c(C(=O)Nc4ccncn4)cc3c2OCCC2CCCCN2)c1` (stereo unspecified), the IC50 in assay [2] was 3.2 nM; in assay [3], 8.3 nM; in assay [1], 240 nM.
As to `Cc1cc(C)cc(-c2c(O)nc3cc(Cl)c(C(=O)NCc4ccc5c(c4)OCO5)cc3c2OCCC2CCCCN2)c1` (stereo unspecified), the results for the half-inhibitory concentration (IC50) in assay [2], in assay [3] and in assay [1] were 110 nM, 591 nM and greater than 1280 nM, respectively.
The like results for `Cc1cc(C)cc(-c2c(O)nc3cc(Cl)c(C(=O)Nc4cccnc4)cc3c2OCCC2CCCCN2)c1` (stereo unspecified) were, in that order, 32 nM, 130 nM and greater than 1280 nM.
As for `Cc1cc(C)cc(-c2c(O)nc3cc(Cl)c(C(=O)Nc4cc(C)no4)cc3c2OCCC2CCCCN2)c1` (stereo unspecified), the concentration for half-maximal inhibition (IC50) in assay [2] is 23 nM; in assay [1] it was greater than 1280 nM.
On to `Cc1cc(C)cc(-c2c(O)nc3cc(Cl)c(C(=O)Nc4ccccn4)cc3c2OCCC2CCCCN2)c1` (stereo unspecified), for which the values for the IC50 in assay [2], in assay [3] and in assay [1] were 3.6 nM, 19 nM and 1260 nM, respectively.
Regarding `CCn1nccc1NC(=O)c1cc2c(OCCC3CCCCN3)c(-c3cc(C)cc(C)c3)c(O)nc2cc1Cl` (stereo unspecified), the IC50 in assay [2] worked out at 860 nM; in assay [3] it was 977 nM.
`Cc1cc(C)cc(-c2c(O)nc3cc(Cl)c(C(=O)Nc4ncccn4)cc3c2OCCC2CCCCN2)c1` (stereo unspecified): the 50% inhibitory concentration (IC50) in assay [2] is 290 nM; in assay [3] it was greater than 3200 nM; in assay [1] it was greater than 1280 nM.
`Cc1cc(C)cc(-c2c(O)nc3cc(Cl)c(C(=O)Nc4ccc(N(C)C)cc4)cc3c2OCCC2CCCCN2)c1` (stereo unspecified): the values for the IC50 in assay [2] and in assay [3] were 10.9 nM and 360 nM, respectively.
For `Cc1cc(C)cc(-c2c(O)nc3cc(Cl)c(C(=O)Nc4cc(C)on4)cc3c2OCCC2CCCCN2)c1` (stereo unspecified), the 50% inhibitory concentration (IC50) in assay [2] is 2.3 nM; in assay [3] it was 77.5 nM; in assay [1], 513 nM.
Take `Cc1cc(C)cc(-c2c(O)nc3cc(Cl)c(C(=O)Nc4cnccn4)cc3c2OCCC2CCCCN2)c1` (stereo unspecified): the half-inhibitory concentration (IC50) in assay [2] is 7 nM; in assay [3] it was 16 nM; in assay [1] it was 2200 nM.
Molecule `CCN(CC)C(=O)c1cc2c(OCCC3CCCCN3)c(-c3cc(C)cc(C)c3)c(O)nc2cc1Cl` (stereo unspecified) displayed a half-inhibitory concentration (IC50) in assay [1] greater than 1280 nM.
Take `Cc1cc(C)cc(-c2c(O)nc3cc(Cl)c(C(=O)Nc4cnsn4)cc3c2OCC[C@@H]2CCCCN2)c1`: the IC50 in assay [2] was 0.8 nM; in assay [3], 5.9 nM; in assay [1], 23.9 nM.
For the molecule `Cc1cc(C)cc(-c2c(O)nc3cc(Cl)c(C(=O)Nc4ccnc(C5CC5)n4)cc3c2OCCC2CCCCN2)c1` (stereo unspecified), the 50% inhibitory concentration (IC50) amounted to 15 nM in assay [2] and 250 nM in assay [3].
`Cc1cc(C)cc(-c2c(O)nc3cc(Cl)c(C(=O)Nc4nnc(C)s4)cc3c2OCCC2CCCCN2)c1` (stereo unspecified): the half-inhibitory concentration (IC50) in assay [2] is 28 nM; in assay [1], greater than 1280 nM.
For `Cc1cc(C)cc(-c2c(O)nc3cc(Cl)c(C(=O)Nc4cc(C)ns4)cc3c2OCCC2CCCCN2)c1` (stereo unspecified), the IC50 in assay [2] came out at 2.9 nM; in assay [3], 21.5 nM; in assay [1] it was 521 nM.
The like results for `Cc1cc(C)cc(-c2c(O)nc3cc(Cl)c(C(=O)Nc4cc(C)ncn4)cc3c2OCCC2CCCCN2)c1` (stereo unspecified) were, in that order, 2.8 nM, 44 nM and 167 nM.
